The record followed here is paper PMC5363571 (Oncotarget, 2016).

Each structure is given as a SMILES string. Where a name gives a salt, the structure may show the parent alone.

This experiment deals with USP7 (Homo sapiens, UniProt Q93009). Briefly: biochemical. Also noted: Ub-AMC hydrolysis by recombinant USP7 (20 nM), 30 min pre-incubation, fluorescence read-out. Conditions: read-out: % Inhibition at 50 μM.
USP7, sequence (Q93009 whole entry): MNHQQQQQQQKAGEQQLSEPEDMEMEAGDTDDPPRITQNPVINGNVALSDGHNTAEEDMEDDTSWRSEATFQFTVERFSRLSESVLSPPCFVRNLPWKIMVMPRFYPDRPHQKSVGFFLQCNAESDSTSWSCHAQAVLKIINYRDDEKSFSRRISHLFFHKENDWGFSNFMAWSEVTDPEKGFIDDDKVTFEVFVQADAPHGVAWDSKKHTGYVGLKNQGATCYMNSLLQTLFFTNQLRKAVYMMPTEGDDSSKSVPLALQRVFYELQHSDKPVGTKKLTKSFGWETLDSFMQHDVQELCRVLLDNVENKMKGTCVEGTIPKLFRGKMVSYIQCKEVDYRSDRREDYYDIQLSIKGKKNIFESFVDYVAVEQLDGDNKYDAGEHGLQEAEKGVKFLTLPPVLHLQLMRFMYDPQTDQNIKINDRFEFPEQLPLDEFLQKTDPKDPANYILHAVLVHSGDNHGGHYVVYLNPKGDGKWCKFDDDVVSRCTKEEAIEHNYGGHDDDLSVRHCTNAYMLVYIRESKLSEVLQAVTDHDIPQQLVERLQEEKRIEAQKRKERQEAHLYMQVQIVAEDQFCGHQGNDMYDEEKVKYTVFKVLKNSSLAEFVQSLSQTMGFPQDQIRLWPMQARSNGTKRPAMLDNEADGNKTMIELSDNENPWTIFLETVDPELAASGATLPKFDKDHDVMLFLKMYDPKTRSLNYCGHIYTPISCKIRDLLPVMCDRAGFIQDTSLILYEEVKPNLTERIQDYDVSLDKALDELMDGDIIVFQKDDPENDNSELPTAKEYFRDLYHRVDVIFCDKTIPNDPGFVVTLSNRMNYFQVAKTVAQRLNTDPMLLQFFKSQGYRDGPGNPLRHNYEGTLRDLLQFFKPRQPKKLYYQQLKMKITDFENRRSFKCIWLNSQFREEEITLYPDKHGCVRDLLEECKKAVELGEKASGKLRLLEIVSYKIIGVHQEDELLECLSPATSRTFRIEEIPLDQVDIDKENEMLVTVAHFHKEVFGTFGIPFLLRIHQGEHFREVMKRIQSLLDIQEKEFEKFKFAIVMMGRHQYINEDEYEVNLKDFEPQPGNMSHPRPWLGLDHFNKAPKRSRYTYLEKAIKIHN
With `CCCCc1oc2ccccc2c1C(=O)c1cc(I)c(OCCN(CC)CC)c(I)c1` [Amiodarone], the inhibition (as a rule, the change of the read-out against control, counted positive when it falls) at 50 µM is under 5%.
The result for `CC(CN1c2ccccc2Sc2ccccc21)N(C)C` (stereo not shown) [Promethazine HCl] reads 8.9%; that for `CC1(C)CC[C@]2(C(=O)O)CC[C@]3(C)C(=CC[C@@H]4[C@@]5(C)CC[C@H](O)C(C)(C)[C@@H]5CC[C@]43C)[C@@H]2C1` [Oleanolic acid], 69.2%.
The result for `CC=CC(=O)N(CC)c1ccccc1C` [Crotamiton] reads under 5%; that for `C[C@H](CS)C(=O)N1CCC[C@H]1C(=O)O` [Captopril], under 5%; that for `CC1CCc2c(N3CCC(O)CC3)c(F)cc3c(=O)c(C(=O)O)cn1c23` (stereo not shown) [Nadifloxacin], under 5%.
The result for `COC(=O)[C@H](c1ccccc1Cl)N1CCc2sccc2C1` [Clopidogrel sulfate] reads under 5%; that for `CN(C/C=C/C#CC(C)(C)C)Cc1cccc2ccccc12` [Terbinafine HCl], 8.6%; that for `CNCCCC12CCC(c3ccccc31)c1ccccc12` [Maprotiline HCl], 11.3%.
On to `CC(C)c1cccc(C(C)C)c1O` [Propofol], for which the inhibition at 50 µM was under 5%.
The result for `O=C(NCC1CCCCN1)c1cc(OCC(F)(F)F)ccc1OCC(F)(F)F` (stereo not shown) [Flecainide] reads under 5%; that for `CC[C@]1(O)C[C@@H]2CN(CCc3c([nH]c4ccccc34)[C@@](C(=O)OC)(c3cc4c(cc3OC)N(C)[C@H]3[C@@](O)(C(N)=O)[C@H](O)[C@]5(CC)C=CCN6CC[C@]43[C@@H]65)C2)C1` [Vindesine], under 5%.
Consider `O=C(O)c1cccnc1Nc1cccc(C(F)(F)F)c1` [Niflumic acid], for which the inhibition at 50 µM was under 5%.
The result for `O=C1CCc2ccc(OCCCCN3CCN(c4cccc(Cl)c4Cl)CC3)cc2N1` [Aripiprazole] reads under 5%; that for `CCCCC[C@H](O)/C=C/[C@@H]1[C@@H](C/C=C\CCCC(=O)O)[C@@H](O)C[C@H]1O` [Dinoprost], under 5%.
With `CC(=O)[C@]1(O)Cc2c(O)c3c(c(O)c2[C@@H](O[C@H]2C[C@H](N)[C@H](O)[C@H](C)O2)C1)C(=O)c1ccccc1C3=O` [Idarubicin] the figure was under 5%; with `COc1ccc2cc(CCC(C)=O)ccc2c1` [Nabumetone], under 5%.
With `CC(C)[N+]1(C)C2CCC1CC(OC(=O)C(CO)c1ccccc1)C2` (stereo not shown) [Ipratropium Br] the figure was under 5%; with `Cc1nc2c([nH]1)c(=O)n(C)c(=O)n2Cc1ccco1` [Furafylline], under 5%; with `CCC[C@@H]1C[C@@H](C(=O)N[C@@H]([C@H]2O[C@H](SC)[C@H](O)[C@@H](O)[C@H]2O)[C@H](C)Cl)N(C)C1` [Clindamycin HCl], under 5%.
For the compound `COc1ccccc1O` [Guaiacol], the inhibition at 50 µM was under 5%.
On to `C[C@H]1COc2c(N3CCN(C)CC3)c(F)cc3c(=O)c(C(=O)O)cn1c23` [Levofloxacin HCl], for which the inhibition at 50 µM was under 5%.
Take `O=C(O)COCCN1CCN(C(c2ccccc2)c2ccc(Cl)cc2)CC1` (stereo not shown) [Cetirizine 2HCl]: the inhibition at 50 µM is under 5%.
For `OCc1cc(C(O)CNCCCCCCOCCCCc2ccccc2)ccc1O` (stereo not shown) [Salmeterol], the inhibition at 50 µM was under 5%.
With `O=P(O)(O)C(O)(Cn1ccnc1)P(=O)(O)O` [Zoledronic acid] the figure was under 5%; with `CN(CCOc1ccc(NS(C)(=O)=O)cc1)CCc1ccc(NS(C)(=O)=O)cc1` [Dofetilide], under 5%; with `Cc1cn([C@H]2C[C@H](N=[N+]=[N-])[C@@H](CO)O2)c(=O)[nH]c1=O` [3'-azido-3'-deoxythymidine], under 5%.
Turning to `CCOc1nc2cccc(C(=O)O)c2n1Cc1ccc(-c2ccccc2-c2nnn[nH]2)cc1` [Candesartan], the inhibition at 50 µM was under 5%.
As to `COc1ccc(C(CN(C)C)C2(O)CCCCC2)cc1` (stereo not shown) [Venlafaxine HCl], the inhibition at 50 µM is under 5%.
Regarding `CN(C)c1ccc(O)c2c1C[C@H]1C[C@H]3[C@H](N(C)C)C(O)=C(C(N)=O)C(=O)[C@@]3(O)C(O)=C1C2=O` [Minocycline HCl], the inhibition at 50 µM is under 5%.
The result for `COC(=O)C1=C(C)NC(C)=C(C(=O)OCCCN2CCC(c3ccccc3)(c3ccccc3)CC2)[C@H]1c1cccc([N+](=O)[O-])c1` [Niguldipine HCl] reads under 5%; that for `CN(C)C(=N)NC(=N)N` [Metformin], 8.6%.
The result for `C=C(C)[C@@H]1CC[C@]2(C)CC[C@]3(C)[C@H](CC[C@@H]4[C@@]5(C)CC[C@H](O)C(C)(C)[C@@H]5CC[C@]43C)[C@@H]12` [Lupeol] reads under 5%.
With `NC1CCN(c2c(F)cc3c(=O)c(C(=O)O)cn(C4CC4)c3c2Cl)C1` (stereo not shown) [Clinafloxacin HCl] the figure was under 5%; with `O=C(CCNNC(=O)c1ccncc1)NCc1ccccc1` [Nialamide], under 5%.
For `CC(=O)O[C@]1(C(C)=O)CC[C@H]2[C@@H]3C=C(C)C4=CC(=O)CC[C@]4(C)[C@H]3CC[C@@]21C` [Megestrol acetate], the inhibition at 50 µM is under 5%.
With `O=C1c2c(O)ccc(O)c2C(=O)c2c(NCCNCCO)ccc(NCCNCCO)c21` [Mitoxantrone 2HCl] the figure was under 5%.
The result for `CC(C)NCC(O)c1ccc(NS(C)(=O)=O)cc1` (stereo not shown) [Sotalol HCl] reads under 5%.
`Cc1nc2n(c(=O)c1CCN1CCC(c3noc4cc(F)ccc34)CC1)CCCC2` [Risperidone]: the inhibition at 50 µM was under 5%.
Take `C=C[C@H]1CN2CC[C@H]1C[C@H]2[C@H](O)c1ccnc2ccc(OC)cc12` [Quinine]: the inhibition at 50 µM worked out at 16.9%.
With `CCC[C@@H]1C[C@@H](C(=O)N[C@@H]([C@H]2O[C@H](SC)[C@H](O)[C@@H](O)[C@H]2O)[C@@H](C)O)N(C)C1` [Lincomycin] the figure was under 5%.
The result for `CC(C)(O)c1ccccc1CC[C@@H](SCC1(CC(=O)O)CC1)c1cccc(/C=C/c2ccc3ccc(Cl)cc3n2)c1` [Montelukast] reads 76.3%; that for `CC[C@]1(O)C[C@H]2CN(CCc3c([nH]c4ccccc34)[C@@](C(=O)OC)(c3cc4c(cc3OC)N(C=O)[C@H]3[C@@](O)(C(=O)OC)[C@H](OC(C)=O)[C@]5(CC)C=CCN6CC[C@]43[C@@H]65)C2)C1` [Vincristine sulfate], under 5%; that for `Nc1cc(-c2ccncc2)c[nH]c1=O` [Amrinone], under 5%.
Turning to `CCCCCCCCCCCCCCCC(=O)O[C@@H]1[C@@H](O)[C@@H](O)[C@@H]([C@H](NC(=O)[C@@H]2C[C@@H](CCC)CN2C)[C@H](C)Cl)O[C@@H]1SC` [Clindamycin palmitate], the inhibition at 50 µM is under 5%.
In the case of `CCCCC(C)(O)C/C=C/[C@H]1[C@H](O)CC(=O)[C@@H]1CCCCCCC(=O)OC` (mixture of isomers) [Misoprostol], the inhibition at 50 µM is under 5%.
On to `CC1(C)[C@@H](O)CC[C@]2(C)[C@H]3C(=O)C=C4[C@@H]5C[C@@](C)(C(=O)O)CC[C@]5(C)CC[C@@]4(C)[C@]3(C)CC[C@@H]12` [Glycyrrhetic acid], for which the inhibition at 50 µM is under 5%.
With `C[N+](C)(C)CCOC(=O)CCC(=O)OCC[N+](C)(C)C` [Succinylcholine] the figure was under 5%; with `CC(=O)O[C@H]1C(=O)[C@@]2(C)[C@H]([C@H](OC(=O)c3ccccc3)[C@]3(O)C[C@H](OC(=O)[C@H](O)[C@@H](NC(=O)c4ccccc4)c4ccccc4)C(C)=C1C3(C)C)[C@]1(OC(C)=O)CO[C@@H]1C[C@@H]2O` [Taxol], 26.9%.
The result for `CCN(CC)CCNC(=O)c1ccc(N)cc1` [Procainamide] reads under 5%; that for `NC(=O)OCC(COC(N)=O)c1ccccc1` [Felbamate], under 5%.
Consider `CN[C@@H]1[C@H](O[C@H]2[C@H](O[C@H]3[C@H](O)[C@@H](O)[C@H](N=C(N)N)[C@@H](O)[C@@H]3N=C(N)N)O[C@@H](C)[C@]2(O)C=O)O[C@@H](CO)[C@H](O)[C@H]1O` [Streptomycin sulfate], for which the inhibition at 50 µM is under 5%.
With `NC[C@H](O)c1ccc(O)c(O)c1` [Norepinephrine-(+)-tartrate l (-)] the figure was under 5%.
With `O=P(O)(O)C(Cl)(Cl)P(=O)(O)O` [Clodronate disodium] the figure was under 5%; with `CCC(NC(C)C)C(O)c1ccc(O)c2[nH]c(=O)ccc12` (stereo not shown) [Procaterol hcl], under 5%; with `COc1cc2c(cc1OC)-c1c/c(=N\c3c(C)cc(C)cc3C)n(C)c(=O)n1CC2` [Trequinsin HCl], under 5%.
With `CC(C)NCC(O)COc1cccc2[nH]ccc12` (stereo not shown) [Pindolol], the inhibition at 50 µM was under 5%.
The result for `Cc1cnc(C(=O)O)c[n+]1[O-]` [Acipimox] reads under 5%; that for `CN(Cc1ccc(C(C)(C)C)cc1)Cc1cccc2ccccc12` [Butenafine], 24.9%.
For `C[C@@H](O[C@H]1OCCN(Cc2n[nH]c(=O)[nH]2)[C@H]1c1ccc(F)cc1)c1cc(C(F)(F)F)cc(C(F)(F)F)c1` [Aprepitant], the inhibition at 50 µM is under 5%.
On to `COc1ccc2[nH]cc(CCNC(C)=O)c2c1` [Melatonin], for which the inhibition at 50 µM was under 5%.
With `O=C1C[C@@H]2OCC=C3CN4CC[C@]56c7ccccc7N1[C@H]5[C@H]2[C@H]3C[C@H]46` [Strychnine HCl] the figure was under 5%; with `CC1(C)CC[C@]2(C(=O)O)CCC3=C([C@@H](CCl)C[C@@H]4[C@@]5(C)C[C@H](O)[C@H](O)[C@@](C)(C(=O)O)[C@@H]5CC[C@@]34C)[C@@H]2C1` [Senegenin], under 5%; with `O=c1[nH]cnc2c1ncn2[C@H]1CC[C@@H](CO)O1` [Didanosine], under 5%.
Turning to `CC(C)CN(C[C@@H](O)[C@H](Cc1ccccc1)NC(=O)O[C@H]1CCOC1)S(=O)(=O)c1ccc(N)cc1` [Amprenavir], the inhibition at 50 µM was under 5%.
With `Cc1ncc([N+](=O)[O-])n1CC(C)O` (stereo not shown) [Secnidazole] the figure was under 5%; with `N=C(N)NC(=N)N1CCOCC1` [Moroxydine HCl], 17.2%.
